{"source": "the NIST ThermoML archive (doi:10.1016/j.tca.2007.05.014)", "key": {"[1]": {"test": "molar heat capacity at constant pressure", "details": "101.33 kPa, Vacuum adiabatic calorimetry"}, "[2]": {"details": "Crystal; Adiabatic calorimetry"}}, "note": "Numbers after ± are expanded uncertainties.", "data": [{"smiles": "c1ccc(CSSCc2ccccc2)cc1", "note": "[1,4-diphenyl-2,3-dithiabutane]", "values": [{"measurement": "molar heat capacity at constant pressure", "setting": "[1]; 220.9 K, Crystal", "value": "305.02 ± 1.3", "unit": "J/K/mol"}, {"measurement": "molar heat capacity at constant pressure", "setting": "[1]; 224.17 K, Crystal", "value": "310.55 ± 1.3", "unit": "J/K/mol"}, {"measurement": "molar heat capacity at constant pressure", "setting": "[1]; 225 K, Crystal", "value": "312.77 ± 1.3", "unit": "J/K/mol"}, {"measurement": "molar heat capacity at constant pressure", "setting": "[1]; 227.41 K, Crystal", "value": "316.71 ± 1.3", "unit": "J/K/mol"}, {"measurement": "molar heat capacity at constant pressure", "setting": "[1]; 230 K, Crystal", "value": "319.61 ± 1.3", "unit": "J/K/mol"}, {"measurement": "molar heat capacity at constant pressure", "setting": "[1]; 230.64 K, Crystal", "value": "324.45 ± 1.3", "unit": "J/K/mol"}, {"measurement": "molar heat capacity at constant pressure", "setting": "[1]; 234.1 K, Crystal", "value": "331.98 ± 1.4", "unit": "J/K/mol"}, {"measurement": "molar heat capacity at constant pressure", "setting": "[1]; 235 K, Crystal", "value": "326.59 ± 1.4", "unit": "J/K/mol"}, {"measurement": "molar heat capacity at constant pressure", "setting": "[1]; 237.58 K, Crystal", "value": "333.36 ± 1.4", "unit": "J/K/mol"}, {"measurement": "molar heat capacity at constant pressure", "setting": "[1]; 240 K, Crystal", "value": "333.73 ± 1.4", "unit": "J/K/mol"}, {"measurement": "molar heat capacity at constant pressure", "setting": "[1]; 240.9 K, Crystal", "value": "338.86 ± 1.4", "unit": "J/K/mol"}, {"measurement": "molar heat capacity at constant pressure", "setting": "[1]; 244.3 K, Crystal", "value": "341.63 ± 1.4", "unit": "J/K/mol"}, {"measurement": "molar heat capacity at constant pressure", "setting": "[1]; 245 K, Crystal", "value": "341.01 ± 1.4", "unit": "J/K/mol"}, {"measurement": "molar heat capacity at constant pressure", "setting": "[1]; 247.7 K, Crystal", "value": "342.44 ± 1.4", "unit": "J/K/mol"}, {"measurement": "molar heat capacity at constant pressure", "setting": "[1]; 250 K, Crystal", "value": "348.41 ± 1.4", "unit": "J/K/mol"}, {"measurement": "molar heat capacity at constant pressure", "setting": "[1]; 251 K, Crystal", "value": "347.57 ± 1.4", "unit": "J/K/mol"}, {"measurement": "molar heat capacity at constant pressure", "setting": "[1]; 254.37 K, Crystal", "value": "353.48 ± 1.5", "unit": "J/K/mol"}, {"measurement": "molar heat capacity at constant pressure", "setting": "[1]; 255 K, Crystal", "value": "355.91 ± 1.5", "unit": "J/K/mol"}, {"measurement": "molar heat capacity at constant pressure", "setting": "[1]; 257.79 K, Crystal", "value": "359.5 ± 1.5", "unit": "J/K/mol"}, {"measurement": "molar heat capacity at constant pressure", "setting": "[1]; 260 K, Crystal", "value": "363.48 ± 1.5", "unit": "J/K/mol"}, {"measurement": "molar heat capacity at constant pressure", "setting": "[1]; 261.22 K, Crystal", "value": "363.54 ± 1.5", "unit": "J/K/mol"}, {"measurement": "molar heat capacity at constant pressure", "setting": "[1]; 264.69 K, Crystal", "value": "369.67 ± 1.5", "unit": "J/K/mol"}, {"measurement": "molar heat capacity at constant pressure", "setting": "[1]; 265 K, Crystal", "value": "371.1 ± 1.5", "unit": "J/K/mol"}, {"measurement": "molar heat capacity at constant pressure", "setting": "[1]; 268.17 K, Crystal", "value": "374.81 ± 1.6", "unit": "J/K/mol"}, {"measurement": "molar heat capacity at constant pressure", "setting": "[1]; 270 K, Crystal", "value": "378.73 ± 1.6", "unit": "J/K/mol"}, {"measurement": "molar heat capacity at constant pressure", "setting": "[1]; 271.64 K, Crystal", "value": "381.1 ± 1.6", "unit": "J/K/mol"}, {"measurement": "molar heat capacity at constant pressure", "setting": "[1]; 275 K, Crystal", "value": "386.35 ± 1.6", "unit": "J/K/mol"}, {"measurement": "molar heat capacity at constant pressure", "setting": "[1]; 275.11 K, Crystal", "value": "386.26 ± 1.6", "unit": "J/K/mol"}, {"measurement": "molar heat capacity at constant pressure", "setting": "[1]; 278.65 K, Crystal", "value": "391.99 ± 1.6", "unit": "J/K/mol"}, {"measurement": "molar heat capacity at constant pressure", "setting": "[1]; 280 K, Crystal", "value": "393.93 ± 1.6", "unit": "J/K/mol"}, {"measurement": "molar heat capacity at constant pressure", "setting": "[1]; 282.26 K, Crystal", "value": "396.6 ± 1.6", "unit": "J/K/mol"}, {"measurement": "molar heat capacity at constant pressure", "setting": "[1]; 285 K, Crystal", "value": "401.44 ± 1.7", "unit": "J/K/mol"}, {"measurement": "molar heat capacity at constant pressure", "setting": "[1]; 285.84 K, Crystal", "value": "402.1 ± 1.7", "unit": "J/K/mol"}, {"measurement": "molar heat capacity at constant pressure", "setting": "[1]; 289.39 K, Crystal", "value": "410.38 ± 1.7", "unit": "J/K/mol"}, {"measurement": "molar heat capacity at constant pressure", "setting": "[1]; 290 K, Crystal", "value": "408.86 ± 1.7", "unit": "J/K/mol"}, {"measurement": "molar heat capacity at constant pressure", "setting": "[1]; 292.9 K, Crystal", "value": "417.2 ± 1.7", "unit": "J/K/mol"}, {"measurement": "molar heat capacity at constant pressure", "setting": "[1]; 295 K, Crystal", "value": "416.2 ± 1.7", "unit": "J/K/mol"}, {"measurement": "molar heat capacity at constant pressure", "setting": "[1]; 296.45 K, Crystal", "value": "417.2 ± 1.7", "unit": "J/K/mol"}, {"measurement": "molar heat capacity at constant pressure", "setting": "[1]; 298.15 K, Crystal", "value": "420.77 ± 1.7", "unit": "J/K/mol"}, {"measurement": "molar heat capacity at constant pressure", "setting": "[1]; 299.98 K, Crystal", "value": "422.24 ± 1.7", "unit": "J/K/mol"}, {"measurement": "molar heat capacity at constant pressure", "setting": "[1]; 300 K, Crystal", "value": "423.44 ± 1.8", "unit": "J/K/mol"}, {"measurement": "molar heat capacity at constant pressure", "setting": "[1]; 303 K, Crystal", "value": "427.75 ± 1.8", "unit": "J/K/mol"}, {"measurement": "molar heat capacity at constant pressure", "setting": "[1]; 303.49 K, Crystal", "value": "427.76 ± 1.8", "unit": "J/K/mol"}, {"measurement": "molar heat capacity at constant pressure", "setting": "[1]; 307 K, Crystal", "value": "437.99 ± 1.8", "unit": "J/K/mol"}, {"measurement": "molar heat capacity at constant pressure", "setting": "[1]; 310.49 K, Crystal", "value": "432.45 ± 1.8", "unit": "J/K/mol"}, {"measurement": "molar heat capacity at constant pressure", "setting": "[1]; 313.97 K, Crystal", "value": "443.61 ± 1.8", "unit": "J/K/mol"}, {"measurement": "molar heat capacity at constant pressure", "setting": "[1]; 317.47 K, Crystal", "value": "440.2 ± 1.8", "unit": "J/K/mol"}, {"measurement": "molar heat capacity at constant pressure", "setting": "[1]; 320.92 K, Crystal", "value": "443.39 ± 1.8", "unit": "J/K/mol"}, {"measurement": "molar heat capacity at constant pressure", "setting": "[1]; 324.15 K, Crystal", "value": "448.33 ± 1.9", "unit": "J/K/mol"}, {"measurement": "molar heat capacity at constant pressure", "setting": "[1]; 327.24 K, Crystal", "value": "479.87 ± 2", "unit": "J/K/mol"}, {"measurement": "molar heat capacity at constant pressure", "setting": "[1]; 330.68 K, Crystal", "value": "494.5 ± 2.1", "unit": "J/K/mol"}, {"measurement": "molar heat capacity at constant pressure", "setting": "[1]; 334.08 K, Crystal", "value": "565.94 ± 2.6", "unit": "J/K/mol"}, {"measurement": "molar heat capacity at constant pressure", "setting": "[1]; 337.09 K, Crystal", "value": "842.59 ± 6.7", "unit": "J/K/mol"}, {"measurement": "molar heat capacity at constant pressure", "setting": "[1]; 339.29 K, Crystal", "value": "2123.3 ± 32", "unit": "J/K/mol"}, {"measurement": "molar heat capacity at constant pressure", "setting": "[1]; 340.75 K, Crystal", "value": "6689.9 ± 160", "unit": "J/K/mol"}, {"measurement": "molar heat capacity at constant pressure", "setting": "[1]; 344.92 K, Liquid", "value": "1138.3 ± 43", "unit": "J/K/mol"}, {"measurement": "molar heat capacity at constant pressure", "setting": "[1]; 350.93 K, Liquid", "value": "545.43 ± 2.5", "unit": "J/K/mol"}, {"measurement": "molar heat capacity at constant pressure", "setting": "[1]; 355 K, Liquid", "value": "545.41 ± 2.2", "unit": "J/K/mol"}, {"measurement": "molar heat capacity at constant pressure", "setting": "[1]; 355.68 K, Liquid", "value": "550.14 ± 2.3", "unit": "J/K/mol"}, {"measurement": "molar heat capacity at constant pressure", "setting": "[1]; 359.31 K, Liquid", "value": "554.64 ± 2.3", "unit": "J/K/mol"}, {"measurement": "molar heat capacity at constant pressure", "setting": "[1]; 360 K, Liquid", "value": "555.11 ± 2.3", "unit": "J/K/mol"}, {"measurement": "molar heat capacity at constant pressure", "setting": "[1]; 362.99 K, Liquid", "value": "559.12 ± 2.3", "unit": "J/K/mol"}, {"measurement": "molar heat capacity at constant pressure", "setting": "[1]; 365 K, Liquid", "value": "561.67 ± 2.3", "unit": "J/K/mol"}, {"measurement": "molar heat capacity at constant pressure", "setting": "[1]; 366.65 K, Liquid", "value": "562.71 ± 2.3", "unit": "J/K/mol"}, {"measurement": "molar heat capacity at constant pressure", "setting": "[1]; 370 K, Liquid", "value": "564.76 ± 2.3", "unit": "J/K/mol"}, {"measurement": "molar heat capacity at constant pressure", "setting": "[1]; 370.29 K, Liquid", "value": "565.83 ± 2.3", "unit": "J/K/mol"}, {"measurement": "molar heat capacity at constant pressure", "setting": "[1]; 373.91 K, Liquid", "value": "569.68 ± 2.4", "unit": "J/K/mol"}, {"measurement": "molar heat capacity at constant pressure", "setting": "[1]; 375 K, Liquid", "value": "580.96 ± 2.4", "unit": "J/K/mol"}, {"measurement": "molar heat capacity at constant pressure", "setting": "[1]; 377.39 K, Liquid", "value": "643.17 ± 2.7", "unit": "J/K/mol"}, {"measurement": "Triple point temperature", "setting": "[2]", "value": "341.72 ± 0.17", "unit": "K"}]}]}
